Reference: publication PMC5430895 (Scientific Reports, 2017)

Tests used:
RASF = test: Saracatinib uptake in human RA synovial fibroblasts (HPLC-UV)
Method: The kinetic parameters Km and V max values were estimated by least-square nonlinear regression analysis using GraphPadPrism 5 software.
Unpaired student t-test was used for statistical analysis.
Cells were grown at standard conditions. Synovial fibroblasts (SF) were isolated from tissues of patients with rheumatoid arthritis (RA) (n = 8) obtained during joint replacement surgery after written informed consent was obtained. This procedure was approved by the Ethics Committee of the University of Münster, Germany; all methods were performed in accordance with the relevant guidelines and regulations. […] RA patients met the American College of Rheumatology criteria. Isolated fibroblasts were cultured under standard conditions for a maximum of eight passages. When indicated, RASF were incubated with 10 ng/ml TNFα (PeproTech, Hamburg, Germany). Cell number was evaluated with a CASEYTT cell counter (Roche Innovatis, Reutlingen, Germany).
(§1) After incubation, cells were washed with ice-cold PBS and hypoosmotic lysis was induced with 0.1% formic acid. […] The mobile phase consisted of (A) acetonitrile with 0.1% formic acid and (B) 0.1% formic acid and was delivered at 0.3 ml/min in a gradient program. After delivering 100% B for 3 min, a linear gradient to 100% A was applied within 7 min and maintained for 5 min. Thereafter, in order to re-equilibrate the column, a simple isocratic elution step with 100% eluent B was applied for at least 6 min. […] Separation was carried out on an Accucore C18 column equipped with a C18 guard column. The data were acquired by ChromQuest 5.0 chromatography software.

hOCTN1 = biological target: T1, hOCTN1 (Homo sapiens, UniProt Q9H015); test: Saracatinib uptake in hOCTN1-overexpressing HEK293 cells (HPLC-UV)
T1 sequence (Q9H015 1-551): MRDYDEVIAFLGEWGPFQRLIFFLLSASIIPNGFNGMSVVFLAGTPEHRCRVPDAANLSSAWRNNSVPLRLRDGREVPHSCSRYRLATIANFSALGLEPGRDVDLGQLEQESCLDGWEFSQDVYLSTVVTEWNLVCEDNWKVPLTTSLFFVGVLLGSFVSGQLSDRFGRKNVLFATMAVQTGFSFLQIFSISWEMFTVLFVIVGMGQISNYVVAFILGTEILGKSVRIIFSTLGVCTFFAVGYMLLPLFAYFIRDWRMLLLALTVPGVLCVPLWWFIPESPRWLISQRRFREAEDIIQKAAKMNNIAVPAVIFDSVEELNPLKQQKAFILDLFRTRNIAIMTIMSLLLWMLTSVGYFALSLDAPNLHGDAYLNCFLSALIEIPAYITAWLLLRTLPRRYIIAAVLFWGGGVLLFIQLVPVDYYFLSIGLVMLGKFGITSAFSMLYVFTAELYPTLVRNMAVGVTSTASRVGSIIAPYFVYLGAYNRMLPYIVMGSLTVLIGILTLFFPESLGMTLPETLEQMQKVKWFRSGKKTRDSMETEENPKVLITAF
Method: Twenty-four hours before starting experiments hOCTN1 expression was induced by 1 mg/l doxycycline (Sigma-Aldrich, Steinheim, Germany). Cells were grown at standard conditions. […] Cell number was evaluated with a CASEYTT cell counter (Roche Innovatis, Reutlingen, Germany).
as §1

influence of extracellular pH on saracatinib uptake (RASF; RASF): pH-dependent | Km (RASF; read-out: Km of saracatinib uptake, RASF, 10 min incubation): 39.4 ± 9.4 µM | saracatinib accumulation (specific uptake) (hOCTN1; hOCTN1-HEK293, 10 µM saracatinib, 10 min, difference of accumulation at 4 °C and 37 °C): 9.3 ± 1.6 nmol/mg protein | influence of extracellular pH on saracatinib uptake (hOCTN1; hOCTN1-HEK293 cells): pH dependent | time for which hOCTN1 mediated saracatinib accumulation is linear (hOCTN1; hOCTN1-HEK293 cells, 10 µM saracatinib): at least 15 min | maximum saracatinib uptake (Vmax) (hOCTN1; hOCTN1-HEK293 cells, 10 min incubation): 79.7 ± 5.2 nmol/mg protein
Structure (SMILES): CN1CCN(CCOc2cc(OC3CCOCC3)c3c(Nc4c(Cl)ccc5c4OCO5)ncnc3c2)CC1 [saracatinib, N-(5-chloro-1,3-benzodioxol-4-yl)-7-[2-(4-methylpiperazin-1-yl)ethoxy]-5-(tetrahydro-2H-pyran-4-yloxy)quinazolin-4-amine]
increase of saracatinib uptake versus untreated controls (RASF; RASF treated for 18 h with TNFα (10 ng/ml)): 36 ± 5% | saracatinib transport capacity (Vmax) (RASF; RASF, 10 min incubation): 71.6 ± 4.1 nmol/mg protein/10 min
